Data taken from ChEMBL document CHEMBL1132708, “Synthesis and voltage-clamp studies of methyl 1,4-dihydro-2, 6-dimethyl-5-nitro-4-(benzofurazanyl)pyridine-3-carboxylate racemates and enantiomers and of their benzofuroxanyl analogues” (J Med Chem, 1999).
Blank lines part the entries; values can stand above or below the molecule they belong to.

Tests used:
Type in all cases: functional
[1] = target: T1, Voltage-gated L-type calcium channel (Rattus norvegicus, UniProt P22002+Q02485+P27732); assay: Percent increase in current at -20 mV on L-type [Ca2+] channels in rat RIN-m5F at 3 insulinoma cells (n = 5)
[2] = target: T1, Voltage-gated L-type calcium channel; assay: Percent block of total Ba2+ current on L-type [Ca2+] channels in rat RIN-m5F at 3 insulinoma cells (n = 12)
[3] = target: T1, Voltage-gated L-type calcium channel; assay: Percent increase in current at -20 mV on L-type [Ca2+] channels in rat RIN-m5F at 3 insulinoma cells (n = 8)

Increase [1]: 224%
SMILES: CO/C(O)=C1\C(C)=NC(C)=C([N+](=O)[O-])C1c1ccc2nonc2c1 (single isomer, unassigned; (+))

Increase [2]: 164%
SMILES: CO/C(O)=C1\C(C)=NC(C)=C([N+](=O)[O-])C1c1cccc2nonc12 (single isomer, unassigned; (+))

Increase [3]: 247%
SMILES: CO/C(O)=C1\C(C)=NC(C)=C([N+](=O)[O-])C1c1ccc2nonc2c1 (racemic)
